Legend:
Assay in all cases: NCI one-dose SRB anti-proliferative screen
Assay type in all cases: cell-based
[1] = system: SN12C; conditions: Homo sapiens, SN 12C (Renal Cancer), NCI one dose 10 µM, read-out: Cell growth inhibition %
Procedure, shortened: (§1)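 SRB-based colorimetric growth readout; compounds dosed once at 10 µM.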

[2] = system: SF-268; conditions: Homo sapiens; SF-268 (CNS Cancer), NCI one dose 10 µM; read-out: Cell growth inhibition %
Procedure, shortened: as §1

[3] = system: EKVX; conditions: Homo sapiens; EKVX (Non-Small Cell Lung Cancer), NCI one dose 10 µM; read-out: Cell growth inhibition %
Procedure, shortened: as §1

[4] = system: MCF7; conditions: Homo sapiens; MCF7 (Breast Cancer), NCI one dose 10 µM; read-out: Cell growth inhibition %
Procedure, shortened: as §1

[5] = system: ACHN; conditions: Homo sapiens; ACHN (Renal Cancer), NCI one dose 10 µM; read-out: Cell growth inhibition %
Procedure, shortened: as §1

[6] = system: SNB-75; conditions: Homo sapiens; SNB-75 (CNS Cancer), NCI one dose 10 µM; read-out: Cell growth inhibition %
Procedure, shortened: as §1

[7] = system: SK-OV-3; conditions: Homo sapiens; SK-OV-3 (Ovarian Cancer), NCI one dose 10 µM; read-out: Cell growth inhibition %
Procedure, shortened: as §1

[8] = system: CAKI-1; conditions: Homo sapiens; CAKI-1 (Renal Cancer), NCI one dose 10 µM; read-out: Cell growth inhibition %
Procedure, shortened: as §1

[9] = system: LOX IMVI; conditions: Homo sapiens, LOX IMIV (Melanoma), NCI one dose 10 µM, read-out: Cell growth inhibition %
Procedure, shortened: as §1

[10] = system: UACC-62; conditions: Homo sapiens; UACC-62 (Melanoma), NCI one dose 10 µM; read-out: Cell growth inhibition %
Procedure, shortened: as §1

[11] = system: SK-MEL-28; conditions: Homo sapiens; SK-MEL-28 (Melanoma), NCI one dose 10 µM; read-out: Cell growth inhibition %
Procedure, shortened: as §1

[12] = system: NCI-H522; conditions: Homo sapiens; NCI-H522 (Non-Small Cell Lung Cancer), NCI one dose 10 µM; read-out: Cell growth inhibition %
Procedure, shortened: as §1

[13] = system: HCC-2998; conditions: Homo sapiens; HCC-2998 (Colon Cancer), NCI one dose 10 µM; read-out: Cell growth inhibition %
Procedure, shortened: as §1

[14] = system: RPMI-8226; conditions: Homo sapiens; RPMI-8226 (Leukemia), NCI one dose 10 µM; read-out: Cell growth inhibition %
Procedure, shortened: as §1

[15] = system: UACC-257; conditions: Homo sapiens; UACC-257 (Melanoma), NCI one dose 10 µM; read-out: Cell growth inhibition %
Procedure, shortened: as §1

[16] = system: SF-295; conditions: Homo sapiens; SF-295 (CNS Cancer), NCI one dose 10 µM; read-out: Cell growth inhibition %
Procedure, shortened: as §1

[17] = system: DU-145; conditions: Homo sapiens; DU-145 (Prostate Cancer), NCI one dose 10 µM; read-out: Cell growth inhibition %
Procedure, shortened: as §1

[18] = system: 786-0; conditions: Homo sapiens; 786-0 (Renal Cancer), NCI one dose 10 µM; read-out: Cell growth inhibition %
Procedure, shortened: as §1

[19] = system: CCRF-CEM; conditions: Homo sapiens; CCRF-CEM (Leukemia), NCI one dose 10 µM; read-out: Cell growth inhibition %
Procedure, shortened: as §1

[20] = system: MDA-MB-468; conditions: Homo sapiens; MDA-MB-468 (Breast Cancer), NCI one dose 10 µM; read-out: Cell growth inhibition %
Procedure, shortened: as §1

[21] = system: SK-MEL-5; conditions: Homo sapiens; SK-MEL-5 (Melanoma), NCI one dose 10 µM; read-out: Cell growth inhibition %
Procedure, shortened: as §1

[22] = system: NCI-H23; conditions: Homo sapiens; NCI-H23 (Non-Small Cell Lung Cancer), NCI one dose 10 µM; read-out: Cell growth inhibition %
Procedure, shortened: as §1

[23] = system: NCI-H226; conditions: Homo sapiens; NCI-H226 (Non-Small Cell Lung Cancer), NCI one dose 10 µM; read-out: Cell growth inhibition %
Procedure, shortened: as §1

[24] = system: COLO 205; conditions: Homo sapiens; COLO 205 (Colon Cancer), NCI one dose 10 µM; read-out: Cell growth inhibition %
Procedure, shortened: as §1

[25] = system: OVCAR-3; conditions: Homo sapiens; OVCAR-3 (Ovarian Cancer), NCI one dose 10 µM; read-out: Cell growth inhibition %
Procedure, shortened: as §1

[26] = system: KM12; conditions: Homo sapiens; KM12 (Colon Cancer), NCI one dose 10 µM; read-out: Cell growth inhibition %
Procedure, shortened: as §1

[27] = system: HS 578T; conditions: Homo sapiens; HS 578T (Breast Cancer), NCI one dose 10 µM; read-out: Cell growth inhibition %
Procedure, shortened: as §1

[28] = system: A549/ATCC; conditions: Homo sapiens; A549/ATCC (Non-Small Cell Lung Cancer), NCI one dose 10 µM; read-out: Cell growth inhibition %
Procedure, shortened: as §1

[29] = system: IGROV1; conditions: Homo sapiens, IGROV-1; IGROV1 (Ovarian Cancer), NCI one dose 10 µM; read-out: Cell growth inhibition %
Procedure, shortened: as §1

[30] = system: MALME-3M; conditions: Homo sapiens; MALME-3M (Melanoma), NCI one dose 10 µM; read-out: Cell growth inhibition %
Procedure, shortened: as §1

[31] = system: PC-3; conditions: Homo sapiens; PC-3 (Prostate Cancer), NCI one dose 10 µM; read-out: Cell growth inhibition %
Procedure, shortened: as §1

Structure (SMILES)	inhibition at 10 µM [1] [%]	inhibition at 10 µM [2] [%]	inhibition at 10 µM [3] [%]	inhibition at 10 µM [4] [%]	inhibition at 10 µM [5] [%]	inhibition at 10 µM [6] [%]	inhibition at 10 µM [7] [%]	inhibition at 10 µM [8] [%]	inhibition at 10 µM [9] [%]	inhibition at 10 µM [10] [%]	inhibition at 10 µM [11] [%]	inhibition at 10 µM [12] [%]	inhibition at 10 µM [13] [%]	inhibition at 10 µM [14] [%]	inhibition at 10 µM [15] [%]	inhibition at 10 µM [16] [%]	inhibition at 10 µM [17] [%]	inhibition at 10 µM [18] [%]	inhibition at 10 µM [19] [%]	inhibition at 10 µM [20] [%]	further results
COc1ccc(-c2nc3cc(-c4nnc(SCC(=O)Nc5ccc(C(=O)/C=C/c6ccccc6)cc5)o4)ccc3[nH]2)cc1OC [Compound 7p, 2-{5-[2-(3,4-Dimethoxyphenyl)-1 H-benzo[d]imidazol-5-yl]-1,3,4-oxadiazol-2-ylthio}-N-{4-[(E)-3-phenylacryloyl]phenyl}acetamide]	5.25	0	0	21.7	3.66	9.72	0	2.96	112	4.99	0	1.56	0	36	0	5.09	0	0.75	11.6	0	inhibition at 10 µM [21]: 4.49%; inhibition at 10 µM [22]: 0.22%; inhibition at 10 µM [23]: 1.84%; inhibition at 10 µM [24]: 0%; inhibition at 10 µM [25]: 0%; inhibition at 10 µM [26]: 0.98%; inhibition at 10 µM [27]: 3.94%; inhibition at 10 µM [28]: 0%; inhibition at 10 µM [29]: 3.63%; inhibition at 10 µM [30]: 2.95%; inhibition at 10 µM [31]: 0%
COc1ccc(-c2nc3cc(-c4nnc(SCC(=O)Nc5ccc(C(=O)/C=C/c6ccc(Cl)cc6)cc5)o4)ccc3[nH]2)cc1OC [Compound 7q, 2-{5-[2-(3,4-Dimethoxyphenyl)-1 H-benzo[d]imidazol-5-yl]-1,3,4-oxadiazol-2-ylthio}-N-{4-[(E)-3-(4-chlorophenyl)acryloyl]phenyl}acetamide]	5.1	0	8.14	24.1	5.74	0	0	0	96.8	1.95	0	1.57	0	24.5	0	1.96	0	0	0	0	inhibition at 10 µM [21]: 2.38%; inhibition at 10 µM [22]: 0%; inhibition at 10 µM [23]: 1.46%; inhibition at 10 µM [24]: 0%; inhibition at 10 µM [25]: 0%; inhibition at 10 µM [26]: 0%; inhibition at 10 µM [27]: 3.98%; inhibition at 10 µM [28]: 0%; inhibition at 10 µM [29]: 8.1%; inhibition at 10 µM [30]: 4.86%; inhibition at 10 µM [31]: 2.29%
COc1ccc(/C=C/C(=O)c2ccc(NC(=O)CSc3nnc(-c4ccc5[nH]c(-c6ccc(OC)c(OC)c6)nc5c4)o3)cc2)cc1 [Compound 7r, 2-{5-[2-(3,4-Dimethoxyphenyl)-1 H-benzo[d]imidazol-5-yl]-1,3,4-oxadiazol-2-ylthio}-N-{4-[(E)-3-(4-methoxyphenyl)acryloyl]phenyl}acetamide]	6.98	0	3.51	24.7	2.15	1.88	0	0.08	20.2	11	0	14.3	0	14.7	0	3.2	0	0	38.6	0	inhibition at 10 µM [21]: 10.8%; inhibition at 10 µM [22]: 5.15%; inhibition at 10 µM [23]: 2.08%; inhibition at 10 µM [24]: 0%; inhibition at 10 µM [25]: 0%; inhibition at 10 µM [26]: 0%; inhibition at 10 µM [27]: 13.2%; inhibition at 10 µM [28]: 0%; inhibition at 10 µM [29]: 2.07%; inhibition at 10 µM [30]: 8.71%; inhibition at 10 µM [31]: 7.58%
COc1cc(-c2nc3cc(-c4nnc(SCC(=O)Nc5ccc(C(=O)/C=C/c6ccccc6)cc5)o4)ccc3[nH]2)cc(OC)c1OC [Compound 7u, 2-{5-[2-(3,4,5-Trimethoxyphenyl)-1 H-benzo[d]imidazol-5-yl]-1,3,4-oxadiazol-2-ylthio}-N-{4-[(E)-3-phenylacryloyl]phenyl}acetamide]	13.2	0	0	44.7	1.08	13.8	0	0	22	8.01	0	3.99	0	24.2	0	2	0	0	21.9	0	inhibition at 10 µM [21]: 5.99%; inhibition at 10 µM [22]: 3.04%; inhibition at 10 µM [23]: 10.4%; inhibition at 10 µM [24]: 0%; inhibition at 10 µM [25]: 0%; inhibition at 10 µM [26]: 0.98%; inhibition at 10 µM [27]: 9.37%; inhibition at 10 µM [28]: 0.78%; inhibition at 10 µM [29]: 29%; inhibition at 10 µM [30]: 2.82%; inhibition at 10 µM [31]: 9.18%
